1 molecule from BindingDB's records for patent US10167299 (Shanghai Institute of Material Medica, Chinese Academy of …, 2019) can be followed below.

In the assay the target is C-C chemokine receptor type 5 (Homo sapiens, UniProt P51681). Put plainly: Calcium Flux Inhibition Experiment. Here is the method:
1. […] The medium in each well into which cells were innoculated was removed and 40 μl/well of freshly prepared dye was added. […] The dye was removed. […] FlexStation II was used for detection.
On the technique in general: Calcium flux is commonly read through the fluorescence of an indicator in the cells.

C-C chemokine receptor type 5, sequence (P51681 whole entry): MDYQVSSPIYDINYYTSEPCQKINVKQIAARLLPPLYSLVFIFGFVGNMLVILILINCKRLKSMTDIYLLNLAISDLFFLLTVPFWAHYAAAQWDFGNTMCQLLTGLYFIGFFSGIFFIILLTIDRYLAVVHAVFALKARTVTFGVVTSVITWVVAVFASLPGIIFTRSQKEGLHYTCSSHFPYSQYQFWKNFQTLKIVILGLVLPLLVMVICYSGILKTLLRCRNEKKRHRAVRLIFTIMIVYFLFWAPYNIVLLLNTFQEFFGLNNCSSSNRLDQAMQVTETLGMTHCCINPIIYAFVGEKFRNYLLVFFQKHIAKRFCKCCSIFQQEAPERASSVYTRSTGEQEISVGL

As a reminder, the IC50 is the concentration at which inhibition is half-maximal. `CC(=O)N[C@@H](CCN1C2CCC1CC(n1c(C)nnc1C(C)C)C2)c1csc2ccccc12` (stereo partly specified) [US10167299, Example 28]: the concentration for half-maximal inhibition (IC50) was 68 nM.
